Patent US12274785B2, “Sustained-release pharmaceutical compositions comprising an immunomodulating agent and uses thereof” (TAIWAN LIPOSOME CO., LTD., priority 2018, dated 2025)
Counter-ions that a name gives are not always drawn.

Key:
[1] = Drug loading of liposomes: drug to lipid molar ratio and encapsulation efficiency (UV/Vis); assay type: physicochemical; settings: fingolimod; HSPC/cholesterol/DPPG (59.5/39.6/0.9); trapping agent 2: 300 mM ammonium sulfate
[2] = Particle size distribution by dynamic light scattering; assay type: physicochemical
Procedure: (§1) The encapsulation efficiency was calculated by the drug to lipid molar ratio (D/L) of the fingolimod hydrochloride encapsulated liposomes compared to the nominal D/L of reaction mixture, which was calculated by dividing the concentration of fingolimod hydrochloride by the lipid concentration of empty liposome. The particle size distribution was measured by a dynamic light scattering instrument (Zetasizer Nano-ZS90, Malvern).
(§2) The encapsulation efficiency was calculated by the drug to lipid molar ratio (D/L) of the ozanimod encapsulated liposomes compared to the nominal D/L of reaction mixture, which was calculated by dividing the concentration of ozanimod by the lipid concentration of empty liposome. The particle size distribution was measured by a dynamic light scattering instrument (Zetasizer Nano-ZS90, Malvern).

[3] = In vitro release through dialysis bag with fetal bovine serum; assay type: physicochemical; settings: fetal bovine serum mixture, PBS pH 7.4 with 0.06N HCl, 37 °C
Procedure: To setup an in vitro release system, 0.5 mL of liposomal fingolimod formulation prepared according to Example 1 and 0.5 mL of free fingolimod hydrochloride were each mixed with 0.5 mL of fetal bovine serum. The free fingolimod/serum mixture and liposomal fingolimod/serum mixture were placed in separate dialysis bags (Spectra/Pro®6 dialysis membrane, MWCO 50 kDa, Spectrum Labs) and both ends of the dialysis bags were sealed. Each dialysis bag was immersed in 15 mL PBS at pH 7.4, containing 0.06N HCl, in a 50-mL centrifuge tube and incubated at 37±1° C. water bath. At designated time points after incubation (1, 2, 4, 8 and 24 hours), 0.5 mL aliquot from the 15-mL PBS was sampled and 0.5 mL of fresh PBS was added to replenish the sampling aliquot each time. Drug concentrations of the sampling aliquots at each time point were analyzed using HPLC to create the in vitro release profile of the tested formulations.

[4] = Drug loading of liposomes: drug to lipid molar ratio and encapsulation efficiency (UV/Vis); assay type: physicochemical
Procedure: (§3) Empty liposomes were prepared by a lipid film hydration-extrusion method. HSPC, cholesterol, and DSPE-PEG2000 (mole percent 59.5/39.6/0.9) were dissolved in chloroform and a thin lipid film was formed by removing the organic solvent under vacuum in a rotary evaporator. The dry lipid film was hydrated in 300 mM ammonium sulfate at 60° C. for 30 min and the empty liposomes were formed with ammonium sulfate encapsulated in the aqueous core. After six freeze-thaw cycles between liquid nitrogen and water at 60° C., the empty liposomes were subsequently extruded ten times through polycarbonate filter membranes with a pore size of 0.2 μm. Unencapsulated ammonium sulfate was removed by dialysis against a 9.4% sucrose solution.
(§4) A reaction mixture containing 7.8 mg/mL of fingolimod hydrochloride (MedChem Express), 20.7 mM of lipids of empty liposomes and 50 mM histidine buffer (pH 7) was incubated at 60° C. for 15 min. The unencapsulated fingolimod hydrochloride was separated by a Sephadex™ G-50 Fine gel (GE Healthcare) or dialysis bag (Spectrum Labs) against a 9.4% sucrose solution to obtain the liposomal fingolimod formulation. The concentrations of the encapsulated fingolimod hydrochloride and the lipid of the liposomal fingolimod formulation were measured using an ultraviolet/visible (UV/Vis) spectrophotometer to calculate the drug to lipid molar ratio (D/L) of the liposomal fingolimod formulation.
as §1
as §3, with “DPPG” for “DSPE-PEG2000”
as §4, with “7.2” for “7.8”, “ozanimod (DC Chemicals), 20.6” for “fingolimod hydrochloride (MedChem Express), 20.7”, “6.5)” for “7)”, “ozanimod” for “fingolimod hydrochloride”, “ozanimod” for “fingolimod”
as §2
The liposome formulations were prepared according to Example 1, with the following trapping agents: (1) 75 mM of triethylammonium sucrose octasulfate, (2) 300 mM of ammonium sulfate, (3) 200 mM ammonium phosphate and (4) 7.0 mM of dextran sulfate.

[5] = Pharmacokinetics study of liposomal fingolimod in rats; assay type: in vivo, Sprague-Dawley rats; settings: IV 5 mg/Kg
Procedure: An in vivo PK evaluation of the liposomal fingolimod formulation was performed using 7- to 8-week-old female Sprague-Dawley rats. The rats were housed in a holding room which operated on a 12-hr light/12-hr dark circadian cycle with free access to water and food.
The rats were divided into three groups (n=4 in each group), one group received intravenous (IV) injection of 5 mg/Kg of free fingolimod hydrochloride, prepared by dissolving the fingolimod hydrochloride in a 9.4% sucrose solution containing 5% dimethyl sulfoxide with a final concentration of 2.00 mg/mL. The second group received intravenous (IV) injection of 5 mg/Kg of liposomal fingolimod formulation prepared according to Example 1. The third group received subcutaneous (SC) injection of 5 mg/Kg of liposomal fingolimod formulation prepared according to Example 1. Blood samples were collected at 5, 15 min, 1, 2, 4, 8, 24, 48, 72, and 96 hours post-injection. Plasma samples were obtained by centrifugation, kept frozen at -80° C. and analyzed using a noncompartmental analysis model in PKSolver (Comput. Methods Programs Biomed. 2010; 99(3):306-314).

[6] = DMPC/cholesterol/DSPE-PEG2000 (59.5/40/0.5), trapping agent 2: 300 mM ammonium sulfate
[7] = DPPC/cholesterol/DSPE-PEG2000 (55.9/38.7/5.4), trapping agent 3: 200 mM ammonium phosphate
[8] = HSPC/cholesterol/DSPE-PEG2000 (59.5/39.6/0.9), trapping agent 1: 75 mM triethylammonium sucrose octasulfate
[9] = HSPC/cholesterol/DSPE-PEG2000 (59.5/39.6/0.9), trapping agent 2: 300 mM ammonium sulfate
[10] = DSPC/cholesterol/DSPE-PEG2000 (59.5/39.6/0.9), trapping agent 4: 7.0 mM dextran sulfate
[11] = HSPC/cholesterol (60/40), trapping agent 1: 75 mM triethylammonium sucrose octasulfate
[12] = ozanimod, HSPC/cholesterol/DPPG (59.5/39.6/0.9), trapping agent 2: 300 mM ammonium sulfate

SMILES: CCCCCCCCc1ccc(CCC(N)(CO)CO)cc1 [Fingolimod HCl, fingolimod hydrochloride]
- Encapsulation Efficiency [1]: 100%
- Purified D/L [1]: 1.01 mole/mole
- Average Particle Size [2, 6]: 154.5 nm
- Average Particle Size [2, 7]: 143.1 nm
- Average Particle Size [2, 8]: 288.0 nm
- Average Particle Size [2, 9]: 162.1 nm
- Average Particle Size ([2]; fingolimod, HSPC/cholesterol/DPPG (59.5/39.6/0.9), trapping agent 2: 300 mM ammonium sulfate): 191.4 nm
- fingolimod released through the dialysis bag within 4 hours ([3]; 4 hours): ~80%
- release through the dialysis bag over 24 hours ([3]; 24 hours): > 80%
- Encapsulation Efficiency [4, 6]: 100%
- Purified D/L [4, 6]: 1.13 mole/mole
- Encapsulation Efficiency [4, 7]: 99%
- Purified D/L [4, 7]: 0.88 mole/mole
- Encapsulation Efficiency [4, 8]: 100%
- Purified D/L [4, 8]: 1.28 mole/mole
- Encapsulation Efficiency [4, 9]: 100%
- Purified D/L [4, 9]: 1.11 mole/mole
- time after which eliminated from the circulation [5]: about 70 hours
- AUC0-t/AUC0-inf ratio ([5]; 96 hours post-injection): approximately 100%

SMILES: CC(C)Oc1ccc(-c2nc(-c3cccc4c3CC[C@@H]4NCCO)no2)cc1C#N [Ozanimod, ozanimod]
- Average Particle Size [2, 10]: 364.2 nm
- Average Particle Size [2, 11]: 215.2 nm
- Average Particle Size [2, 12]: 186.7 nm
- Encapsulation Efficiency [4, 10]: 79%
- Purified D/L [4, 10]: 0.35 mole/mole
- Encapsulation Efficiency [4, 11]: 100%
- Purified D/L [4, 11]: 0.49 mole/mole
- Encapsulation Efficiency [4, 12]: 100%
- Purified D/L [4, 12]: 0.87 mole/mole
